Measured values taken from patent publication US9040580B2, “Method for prevention or treatment of degenerative neurologial brain disorders” (B[…]., LTD., priority 2010, dated 2015).

Columns and labels:
[1] = established by the World Heath Organization (WHO); cited from earlier work
SH-SY5Y cells [2] = test: Cell protective activity against excitatory brain neurotransmitter (glutamate), WST-1; assay type: cell-based, human; details: for apoptosis caused by excitatory brain neurotransmitter: 4 h pre-culture, then 2 mM glutamate 24 h, FIG. 5
Protocol: (§1) In order to identify whether methylparaben (MP) in cultured cells has cell protective effects against active oxygen, excitatory brain neurotransmitter, and α-synuclein, a cell protective activity test was performed. These materials, that is, the active oxygen, excitatory brain neurotransmitter, and α-synuclein has been indicated as a cause of extensive damage of nerve cells with respect to Parkinson's disease and other degenerative cerebral disorders.
(§2) Each well of a 96-well plate was provided with SH-SY5Y cells (5×10^3 cells; 10% FBS added DMEM medium) derived from human nerve cancer and cultured at 37° C. for 24 hours. After this, 1, 10 and 100 ng/ml of methylparaben (MP), 50 μM Vitamin E (Vit E) or 10 μM MK-801 was added and further cultured for 4 hours. Alternatively, as a control group, a culture solution without the addition of a drug was prepared. After culturing for 4 hours, 300 mM hydrogen peroxide solution (H2O2) generating active oxygen, 2 mM glutamate as an excitatory brain neurotransmitter, and 2 μM α-synuclein were further added and cultured for 24 hours. After culturing, the cultured solution was washed using phosphate buffered saline (PBS). 100 μl cultured solution provided with a 10% cell proliferation reagent (WST-1) was poured into an incubator at 37° C. and reacted for 1 hour under […], and then, absorbance was measured at 450 nm.

SH-SY5Y cells [3] = test: Cell protective activity against α-synuclein, WST-1; assay type: cell-based, human; details: for apoptosis caused by α-synuclein: 4 h pre-culture, then 2 μM α-synuclein 24 h, FIG. 6
Protocol: as §1, §2

SH-SY5Y cells [4] = test: Cell protective activity against active oxygen (hydrogen peroxide), WST-1; assay type: cell-based, human; details: for apoptosis caused by active oxygen: 4 h pre-culture, then 300 mM H2O2 24 h, FIG. 4
Protocol: as §1, §2

[5] = test system: Parkinson's disease model (6-OHDA) C57BL/6 mouse; test: Observation of rotary movement (apomorphine-induced) in Parkinson's disease model; details: FIG. 8
[6] = test system: Parkinson's disease model (6-OHDA) C57BL/6 mouse; test: Y-shaped maze test in Parkinson's disease model; assay type: in vivo; details: FIG. 9
Protocol: An Y-shaped maze measurement device has three extending arms to form an alphabet ‘Y’ shape wherein each arm has a length of 35 cm, height of 9 cm, and width of 5 cm, and all arms are formed at the same angle. After positioning a test animal to face an end of one of the arms of the Y-shaped maze, the animal was allowed to freely go around the arms for 8 minutes. Motions of the animal were recorded and, when the animal with hind legs moved inside the arm, the animal was deemed to pass the arm (‘arm entry’). Movement of the animal was represented by the number of crossings (‘alternation’) and one alternation is defined to be when the animal continuously passes three arms. A quantity of spontaneous crossing movement is a percentage ratio of a practical alternation and a maximum possible alternation (that is, a total alternation −2).

[7] = test system: Parkinson's disease model (6-OHDA) C57BL/6 mouse; test: Rotarod test in Parkinson's disease model; assay type: in vivo; details: FIG. 7
Protocol: In order to identify whether methylparaben (MP) can improve movement dysfunction of the Parkinson's disease model, a rotarod test was performed and the test results were evaluated on day 14 after the surgery of Parkinson's disease. The rotarod test refers to a test of measuring a residence time when a mouse was riding on a rotarod without falling off. A rotation speed of the rotarod was set to 10 rpm and the rotarod test was performed over 10 minutes after an adaptation time of 5 minutes. A riding time on the rotarod was repeatedly measured three times and a mean value was calculated, then, a final value was represented in the form of the mean value±mean error (n=6).

[8] = Hydroxyl radical removal ability test (Fenton reaction, DMPO spin trap, ESR); assay type: biochemical
Protocol: In order to identify active oxygen removal ability of methylparaben (MP), Fenton reaction [H2O2+FeSO4] was performed to derive hydroxyl radicals. The derived hydroxyl radicals were entrapped by a nitrone spin trap (DMPO) and the entrapped DMPO-OH addition product was measured by an electron spin resonance (ESR) spectrometer. ESR spectrum was measured by reacting a reaction reagent [phosphate buffer solution (pH 7.4); 4.5 M DMPO 10 μl, 0.6 mM FeSO4 75 μl, 2.8 M H2O2 75 μl], methylparaben and vitamin C (VitC), then, using an ESR spectrometer (JES-FA, JEOL, Japan), and the measured results are shown in FIG. 2. In this regard, the ESR spectrometer carried out analysis using some parameters [magnetic field 340 mT, power 1.00 mW, frequency 9.19 GHz, amplitude modulation 0.2 mT, gain 200, scanning time 2 minutes, scanning width 10 mT, time constant 0.03 seconds, and temperature 20° C.].

[9] = test system: Parkinson's disease model (6-OHDA) C57BL/6 mouse; test: Passive avoidance test in Parkinson's disease model; assay type: in vivo; details: FIG. 10
Protocol: As a test device, a shuttle box having a size of 50×15×40 cm in width×length×height and being provided with an electrically conductive grid was used. The box was separated into two rooms, each having a size of 25×15 cm, by a connecting guillotine door (10×10 cm). Each room was illuminated using a 20 W light bulb. Noise was 60 dB or less and the test was performed in a room with very low illumination.
A mouse was placed in one room (A) of the two rooms separated by the door and the door was opened while turning on a light at 1500 lux. By doing this, the mouse looked around the room and entered the other room (B) without illumination. At this time, the door was operated to be automatically closed. By measuring a time taken from the opening of the door while turning on the light, to the closing of the door, a latency time was determined. The mouse may pass from room A to room B if the above process is repeated. If the mouse crossed from room A into room B within 20 seconds by repeating the above described process, a training process was deemed to be completed. […]
The mouse may develop a memory of a relation between the dark room and the foot-shock. […] After 1 day, a time taken from placing the above mouse in room A just before the mouse crossed into room B when a light turned on, was measured. […]

[10] = 100 μg/kg i.p. everyday for 2 weeks
[11] = 200 μg/kg i.p. everyday for 2 weeks

CCOC(=O)c1ccc(O)cc1 [ethylparaben]
daily proper intake [1]: 10 mg/kg

COC(=O)c1ccc(O)cc1 [methylparaben]
apoptosis caused by excitatory brain neurotransmitter (SH-SY5Y cells [2]; 10 ng/ml): significantly suppressed
apoptosis caused by excitatory brain neurotransmitter (SH-SY5Y cells [2]; 100 ng/ml): significantly suppressed
cell protective effect compared with positive control groups (SH-SY5Y cells [2]; 10 and 100 ng/ml, glutamate): substantially similar to 50 μM VitE or 10 μM MK-801
apoptosis caused by α-synuclein (SH-SY5Y cells [3]; 10 ng/ml): significantly suppressed
apoptosis caused by α-synuclein (SH-SY5Y cells [3]; 100 ng/ml): significantly suppressed
cell protective effect compared with positive control groups (SH-SY5Y cells [3]; 10 and 100 ng/ml, α-synuclein): substantially similar to 50 μM VitE or 10 μM MK-801
apoptosis caused by active oxygen (SH-SY5Y cells [4]; 10 ng/ml): significantly suppressed
apoptosis caused by active oxygen (SH-SY5Y cells [4]; 100 ng/ml): significantly suppressed
cell protective effect compared with positive control groups (SH-SY5Y cells [4]; 10 and 100 ng/ml, H2O2): substantially similar to 50 μM VitE or 10 μM MK-801
rotary movement dysfunction (number of revolutions after apomorphine) [5, 10]: significantly improving
rotary movement dysfunction (number of revolutions after apomorphine) [5, 11]: significantly improving
memory (spontaneous alternation, Y-shaped maze) [6, 10]: significantly improving
memory (spontaneous alternation, Y-shaped maze) [6, 11]: significantly improving
movement ability (riding time on rotarod) [7, 10]: significantly improving
movement ability (riding time on rotarod) [7, 11]: significantly improving
amount of active oxygen (ESR, DMPO-OH) ([8]; adding methylparaben, Fenton reaction, pH 7.4, FIG. 2): reduced an amount of active oxygen
active oxygen inhibitory ability compared with VitC ([8]; methylparaben 100 μg/ml): substantially similar to that of VitC
active oxygen inhibitory ability ([8]; methylparaben added, in relation to concentration, FIG. 3, n=4): active oxygen inhibitory ability was increased
memory (latency time, passive avoidance) [9, 10]: significantly improving
memory (latency time, passive avoidance) [9, 11]: significantly improving
daily proper intake [1]: 10 mg/kg
